Inconclusive results are not listed. Calls of active or inactive are those of the source.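 How the source made its calls: active means Compounds that reduce signal, with fitted half-maximal dose at or under twice the top valid tested dose; inconclusive means Poor fit, or flat curve losing 30 to 70% of signal; inactive means Potency past limit, flat within 30%, or opposite direction.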
Assay: viability loss in HEK293T cells – cell-based, ATP luminescence, cherry-pick samples, cytotoxicity control, dose response (AID 687005)
Conditions: HEK293T viability, ATP luminescence (CellTiter-Glo), 48 h

Row | SMILES | activity change, negative = cytotoxicity (at 26 µM (top of the series)) | also measured
1 | CCCC(=O)Nc1ccc2c(c1)C(=O)N(C)C[C@H](OC)[C@@H](C)CN(C(=O)c1cccnc1)[C@@H](C)CO2 | 4.75% (inactive) | –
2 | C[C@H]1CN([C@@H](C)CO)C(=O)Cc2cc(NS(=O)(=O)c3ccc(F)cc3)ccc2O[C@H]1CN(C)S(=O)(=O)c1ccc(F)cc1 | 6.2% (inactive) | –
3 | C[C@H](NC(=O)C[C@@H]1C=C[C@H](NC(=O)CN2CCOCC2)[C@@H](CO)O1)c1ccccc1 | 18.6% (inactive) | –
4 | Cc1ccccc1S(=O)(=O)N[C@H]1CC[C@H](CCNS(=O)(=O)c2cccc(F)c2)O[C@H]1CO | -6.73% (inactive) | –
5 | Cc1noc(C)c1NC(=O)N(C)C[C@H]1Oc2ccc(NS(=O)(=O)c3cn(C)cn3)cc2CC(=O)N([C@H](C)CO)C[C@H]1C | – | activity change, negative = cytotoxicity (at 23.5 µM (top of the series)): -32.1% (inactive)
6 | O=C(C[C@H]1CC[C@@H](NC(=O)c2ccc3c(c2)OCO3)[C@@H](CO)O1)NCc1ccc(F)cc1 | -2.35% (inactive) | –
7 | CC(C)NC(=O)Nc1ccc2c(c1)C(=O)N([C@@H](C)CO)C[C@H](C)[C@@H](CN(C)S(=O)(=O)c1cccs1)OCCCC[C@H](C)O2 | -17.5% (inactive) | –
8 | CCOC(=O)NC(=S)Nc1ccc(C(C)(C)C)cc1Br | 9.89% (inactive) | –
9 | COC(=O)N(C)C[C@H]1OCc2cn(nn2)CCCC(=O)N([C@@H](C)CO)C[C@@H]1C | -1.3% (inactive) | –
10 | O=C(CSc1ncnc2c1cnn2-c1ccc(F)cc1)NC1CCCC1 | -30.5% (inactive) | –
11 | C[C@H](CO)N1C[C@H](C)[C@@H](CN(C)Cc2ccc(-c3ccccc3)cc2)Oc2ccc(NC(=O)Nc3ccc(C(F)(F)F)cc3)cc2C1=O | -3.25% (inactive) | –
12 | COCC#Cc1cnc2c(c1)C(=O)N([C@@H](C)CO)C[C@H](C)[C@H](CN(C)C(=O)Nc1ccc(OC)cc1)O2 | 21.8% (inactive) | –
13 | CNC(=O)C[C@@H]1CC[C@@H]2[C@H](COC[C@H](O)CN2S(=O)(=O)c2cccc(Cl)c2)O1 | 3.1% (inactive) | –
14 | C[C@@H]1CN([C@H](C)CO)C(=O)c2cc(NC(=O)Nc3cccc4ccccc34)ccc2O[C@@H]1CN(C)C(=O)Nc1ccccc1 | -5.06% (inactive) | –
15 | COc1ccc(NC(=O)Nc2ccc3c(c2)C(=O)N([C@@H](C)CO)C[C@@H](C)[C@H](CN(C)C(=O)Cc2ccccc2)OCCCC[C@H](C)O3)cc1 | -2.88% (inactive) | –
16 | COc1cc(CO)cc(I)c1O[C@H]1C=C(C(=O)NCCO)C[C@@H](N(CC2CCCCC2)C(=O)c2cc3ccccc3oc2=O)[C@@H]1O | 29.4% (inactive) | –
17 | O=C(c1ccco1)N1N=C(c2cccs2)CC1c1ccc(F)cc1 (centres undefined) | -39% (inactive) | –
18 | CCOC(=O)CSc1ncnc2c1cnn2-c1ccc(Cl)cc1 | 0.015% (inactive) | –
19 | CCCNC(=O)N1C[C@@H](O)COC[C@H]2O[C@H](CC(=O)N3CCN(C)CC3)CC[C@@H]21 | -7.83% (inactive) | –
20 | CNC[C@@H]1OCCCC[C@@H](C)Oc2ccc(NS(=O)(=O)c3ccc(Cl)cc3)cc2C(=O)N([C@H](C)CO)C[C@H]1C | -31.3% (inactive) | –
21 | COc1ccc(NC(=O)N(C)C[C@H]2OCCCC[C@@H](C)Oc3ccc(NC(=O)c4ccccc4)cc3C(=O)N([C@H](C)CO)C[C@H]2C)cc1 | -27.5% (inactive) | –
22 | CC(=O)c1ccc(OCC(=O)NCc2ccc(F)cc2)cc1 | 11% (inactive) | –

Row | SMILES | activity change, negative = cytotoxicity (at 26 µM (top of the series)) | also measured
23 | CCCNC(=O)[C@H]1[C@H](CO)[C@H]2Cn3c(cccc3=O)[C@@H]1N2C(=O)Nc1cc(F)ccc1F | 42.5% (inactive) | –
24 | Cc1ccc(C)c(NC(=O)C2(C)CCN2C(=O)C(C)C)c1 (centres undefined) | -19.7% (inactive) | –
25 | C[C@H]1CN([C@@H](C)CO)C(=O)c2cccc(N(C)C)c2O[C@@H]1CN(C)C(=O)Nc1cccc2ccccc12 | -6.36% (inactive) | –
26 | CCCNC(=O)C[C@@H]1CC[C@H]2[C@@H](COC[C@H](O)CN2Cc2ccccc2F)O1 | 22.6% (inactive) | –
27 | CCCNC(=O)[C@@H]1[C@@H](CO)[C@@H]2Cn3c(cccc3=O)[C@H]1N2C(=O)Nc1cc(F)ccc1F | – | activity change, negative = cytotoxicity (at 23.5 µM (top of the series)): 27.4% (inactive)
28 | C/C=C/c1cnc2c(c1)C(=O)N([C@@H](C)CO)C[C@@H](C)[C@@H](CN(C)C(=O)C1CCCCC1)O2 | 10.3% (inactive) | –
29 | COc1ccccc1C(=O)Nc1ccc2c(c1)OC[C@H](C)N(C(C)=O)C[C@H](C)[C@H](OC)CN(C)C2=O | -41.7% (inactive) | –
30 | C[C@H](CO)N1C[C@H](C)[C@@H](CN(C)C(=O)Nc2ccc3c(c2)OCO3)Oc2ccc(NS(=O)(=O)c3cccs3)cc2C1=O | -1.88% (inactive) | –
31 | COc1cccc(S(=O)(=O)Nc2ccc3c(c2)[C@H]2C[C@H](CC(=O)N(C)C)O[C@@H](CO)[C@H]2O3)c1 | -5.49% (inactive) | –
32 | CCC(C)(C(=O)NC1CCCCC1)N(C(=O)C1CCC(=O)N1)c1ccccc1 (centres undefined) | 0.147% (inactive) | –
33 | CN1c2ccc(-c3ccc(F)cc3)cc2[C@H]2[C@H](CCN2S(=O)(=O)c2cccc(F)c2)[C@H]1CO | – | activity change, negative = cytotoxicity (at 23.5 µM (top of the series)): -32.1% (inactive)
34 | CCC(=O)N(C)C[C@H]1Oc2cc(C#CC(C)(C)O)ccc2S(=O)(=O)N([C@@H](C)CO)C[C@@H]1C | 8.91% (inactive) | –
35 | COc1ccc(CN(C)C[C@H]2Oc3ccc(NS(C)(=O)=O)cc3CC(=O)N([C@@H](C)CO)C[C@H]2C)cc1 | -1.35% (inactive) | –
36 | CCCN(C)C[C@@H]1OCCCC[C@H](C)Oc2ccc(NS(=O)(=O)c3ccc(C)cc3)cc2C(=O)N([C@H](C)CO)C[C@@H]1C | 37.3% (inactive) | –
37 | Cc1noc(C)c1S(=O)(=O)Nc1ccc2c(c1)C(=O)N([C@H](C)CO)C[C@H](C)[C@H](CN(C)Cc1ccncc1)O2 | 37.8% (inactive) | –
38 | CCNC(=O)C[C@@H]1CC[C@H]2[C@@H](COC[C@@H](O)CN2S(=O)(=O)c2ccccc2F)O1 | 51.2% (inactive) | –
39 | CCC(C)(NC=O)C(=O)Nc1c(C)cccc1C (centres undefined) | -37.8% (inactive) | –
40 | CN1C(=O)c2cc(NS(C)(=O)=O)ccc2OC[C@@H]2O[C@@H](CC(=O)O)CC[C@@H]21 | – | activity change, negative = cytotoxicity (at 23.5 µM (top of the series)): -2.71% (inactive)
41 | COCCNC(=O)C[C@@H]1C[C@@H]2c3cc(NC(=O)C4CCOCC4)ccc3O[C@@H]2[C@@H](CO)O1 | -3.7% (inactive) | –
42 | C[C@H](CO)N1C[C@H](C)[C@H](CN(C)Cc2cccnc2)Oc2ncc(C#CC3(O)CCCC3)cc2C1=O | -14.5% (inactive) | –
43 | Cc1noc(C)c1S(=O)(=O)N(C)C[C@@H]1Oc2c(NC(=O)c3cnccn3)cccc2C(=O)N([C@@H](C)CO)C[C@@H]1C | 6.5% (inactive) | –
44 | C[C@@H]1CN([C@H](C)CO)C(=O)c2cc(NC(=O)CCC(F)(F)F)ccc2O[C@@H](C)CCCCO[C@@H]1CN(C)C(=O)c1ccncc1 | – | activity change, negative = cytotoxicity (at 23.5 µM (top of the series)): -15.4% (inactive)

Row | SMILES | activity change, negative = cytotoxicity (at 26 µM (top of the series)) | also measured
45 | C[C@@H]1CN([C@@H](C)CO)C(=O)Cc2cc(NC(=O)Nc3cccc4ccccc34)ccc2O[C@@H]1CN(C)Cc1ccc(C(=O)O)cc1 | 30.4% (inactive) | –
46 | CCCCNC(=S)N/N=C/c1ccc(C#N)cc1 | -29.9% (inactive) | –
47 | CO[C@@H]1CC[C@@H]2CCOc3c(C#N)cccc3C(=O)N(C)C[C@H](c3ccccc3)CC(=O)N(C)C[C@@H]1O2 | -28.5% (inactive) | –
48 | CC(C)NC(=O)Nc1ccc2c(c1)C(=O)N([C@H](C)CO)C[C@@H](C)[C@H](CN(C)C(=O)Nc1ccccc1)OCCCC[C@@H](C)O2 | 37.7% (inactive) | –
49 | Cc1noc(C)c1NC(=O)Nc1cccc2c1O[C@H](CN(C)S(=O)(=O)c1cn(C)cn1)[C@H](C)CN([C@H](C)CO)C2=O | -29.5% (inactive) | –
50 | CN1[C@H](C(=O)N2CCc3ccccc3C2)[C@@H](CO)[C@@H]2Cn3c(ccc(-c4cccnc4)c3=O)[C@@H]21 | 7.82% (inactive) | –
51 | Cc1cc(C(=O)Nc2cccc3c2O[C@H](CN(C)S(=O)(=O)c2ccccc2)[C@H](C)CN([C@H](C)CO)C3=O)n(C)n1 | 16.8% (inactive) | –
52 | CO[C@H]1CN(C)C(=O)c2cc(NC(=O)C3CCOCC3)ccc2OC[C@@H](C)NC[C@H]1C | – | activity change, negative = cytotoxicity (at 23.5 µM (top of the series)): 41% (inactive)
53 | C/C=C/c1ccc([C@@H]2[C@@H](CNC(=O)C3CC3)N(C(=O)CC)[C@H]2CO)cc1 | -5.25% (inactive) | –
54 | CCCNC(=O)N1[C@H](CO)[C@@H](c2ccc(C3=CCCC3)cc2)[C@@H]1CN(C)C(C)=O | 37.6% (inactive) | –
55 | COc1ccc(CNC(=S)NCc2ccc(OC(C)C)cc2)cc1 | 19.2% (inactive) | –
56 | O=C(NCCc1ccccc1)[C@@H]1[C@@H](CO)[C@@H]2Cn3c(cccc3=O)[C@H]1N2C(=O)C1CCC1 | 8.28% (inactive) | –
57 | COc1ccc(NC(=O)N(C)C[C@H]2OCCCC[C@@H](C)Oc3ccc(N(C)C)cc3C(=O)N([C@H](C)CO)C[C@H]2C)cc1 | -1% (inactive) | –
58 | C[C@H]1CN([C@@H](C)CO)C(=O)CCCn2cc(nn2)CO[C@@H]1CN(C)Cc1ccc(C(F)(F)F)cc1 | -2.59% (inactive) | –
59 | Cc1ccc(NC(=O)C2(C)CCN2C(=O)CC2CCCC2)cc1 (centres undefined) | – | activity change, negative = cytotoxicity (at 38 µM (top of the series)): -16.5% (inactive)
60 | CCC(=O)Nc1ccc2c(c1)OC[C@H](C)N(C(=O)c1ccc(F)cc1)C[C@@H](C)[C@@H](OC)CN(C)C2=O | 62.2% (inactive) | –
61 | COCC#Cc1cnc2c(c1)C(=O)N([C@H](C)CO)C[C@@H](C)[C@@H](CN(C)C(=O)Nc1ccc(OC)cc1)O2 | -11.3% (inactive) | –
62 | C[C@@H]1CN([C@H](C)CO)C(=O)c2cccc(NC(=O)C3CC3)c2O[C@H]1CN(C)Cc1ccc(C(=O)O)cc1 | -12.7% (inactive) | –
63 | CCCC(=O)Nc1ccc2c(c1)OC[C@@H](C)N(Cc1cncnc1)C[C@@H](C)[C@@H](OC)CN(C)C2=O | 49.4% (inactive) | –
64 | CC(=O)c1sc(NC(=O)c2cc(-c3ccccc3)nn2-c2ccccc2)nc1C | 38.5% (inactive) | –

— PubChem BioAssay AID687005 (Broad Institute, 2013)
